Experimental findings from ChEMBL document CHEMBL2429749, “Trichinenlides A-T, mexicanolide-type limonoids from Trichilia sinensis” (J Nat Prod, 2013) are described below.

Structures are written as SMILES.

The test system of this experiment is RAW264.7. As to the kind of experiment: Antiinflammatory activity in mouse RAW264.7 cells assessed as inhibition of LPS-induced nitric oxide production preincubated for 2 hrs followed by LPS challenge measured after 24 hrs. It counts as functional, cell-based.
As to `C/C=C/C(=O)O[C@H]1C(C)(C)[C@H](CC(=O)OC)[C@]2(C)C(=O)[C@@]1(O)[C@H]1O[C@@]13C2=CC[C@]1(C)[C@H]3CC(=O)O[C@H]1c1ccoc1` [TRICHINENLIDE B], the IC50 (in general, the concentration needed to halve the response being measured) was 2.85 µM.
In the case of `C/C=C/C(=O)O[C@H]1C(C)(C)[C@H](C(O)C(=O)OC)[C@]2(C)C(=O)[C@@]1(O)[C@H]1O[C@@]13C2=CC[C@]1(C)[C@H]3CC(=O)O[C@H]1c1ccoc1` (some centres undefined) [TRICHINENLIDE C], the IC50 was 1.88 µM.
Turning to `C/C=C/C(=O)O[C@H]1C(C)(C)[C@H](CC(=O)OC)[C@]2(C)C(=O)[C@@]1(O)[C@H]1O[C@]13[C@@H]1CC(=O)O[C@@H](c4ccoc4)[C@]1(C)CC[C@H]23`, the IC50 worked out at 3.33 µM.
The value for `COc1cc(/C=C/C(=O)CC(=O)/C=C/c2ccc(O)c(OC)c2)ccc1O` [CURCUMIN] was 5 µM.
